In patent publication US12234230B2, “Substituted benzyl-triazole compounds for Cbl-b inhibition, and further uses thereof” (Nurix Therapeutics, Inc., priority 2019, dated 2025):
Where two headings read alike, the source gives them in different places.

Tests used:
Cbl-b = Cbl-b (Homo sapiens (Human), UniProt Q13191); experiment: Cbl-b displacement assay (Cbl-b inhibition assay), Biological Example 1; format: binding
Procedure: The ability of candidate compounds to displace a known inhibitor and thereby inhibit Cbl-b activity was measured by monitoring the interaction of Cbl-b with a fluorophore-labeled probe in the presence of the candidate compound.
Following the one hour incubation, the plates were read for TR-FRET signal at 520/620 nm using an Envision plate reader (Perkin Elmer).

[1] = test system: primary human total T-cells; experiment: Primary human total T-cell activation (IL-2 secretion, CD25 surface staining), Biological Example 2; conditions: fold change over baseline; for CD25 staining CD3/CD28 0.3 μM / IL-2 secretion CD3/CD28 0.3 μM: 0.3 μM inhibitor; for CD25 staining CD3/CD28 0.3 μM / IL-2 secretion CD3/CD28 0.3 μM / CD25 staining CD3/CD28 1 μM / IL-2 secretion CD3/CD28 1 μM: anti-CD3 and anti-CD28 co-stimulation; for CD25 staining CD3/CD28 1 μM / IL-2 secretion CD3/CD28 1 μM / CD25 staining CD3 1 μM / IL-2 secretion CD3 1 μM: 1 μM inhibitor; for CD25 staining CD3 1 μM / IL-2 secretion CD3 1 μM / CD25 staining CD3 3 μM / IL-2 secretion CD3 3 μM: anti-CD3 stimulation alone; for CD25 staining CD3 3 μM / IL-2 secretion CD3 3 μM: 3 μM inhibitor
Procedure: Peripheral blood mononuclear cells (PBMC) were obtained either: 1) by using Ficoll-Paque™ (GE Healthcare) for separation of peripheral blood hematopoietic cells from buffy coats of healthy human donors; or 2) directly from LeukoPak donations. […] The cells were rested overnight at 37° C. 5% CO2. The Cbl-inhibitor was added to 1×10^5 cells per well and the plate was incubated for one hour at 37° C. in 5% CO2 at the concentrations indicated (Table 3) with a final DMSO concentration of <0.1%. For samples stimulated with anti-CD3 antibody and anti-CD28 antibody (anti-CD3/anti-CD28), the Cbl-b inhibitor concentrations tested were 1 μM, and 0.3 μM. For samples stimulated with anti-CD3 antibody alone (anti-CD3), the Cbl-b inhibitor concentrations tested were 3 μM, and 1 μM. […] To prepare plates with plate bound anti-CD3 antibody (OKT3), 96-well round bottom tissue culture plates were coated with 100 μL of anti-CD3 antibody (OKT3) at 10 μg/mL for 4 hours at 37° C. 5% CO2 in phosphate buffered saline (PBS). […] Cells were stimulated for 48 hours prior to harvesting the cell free supernatant and staining the cell population for surface marker assessment by flow cytometry. Supernatants were analyzed for cytokine secretion, including IL-2 by ELISA (R&D Systems, Peprotech or Life Technologies) or Luminex multiplex kits (Procarta Life Technologies) following the manufacturer's protocol. Cells were stained with anti-CD25 antibody (BD Biosciences) to assess levels of surface marker of activation.
Readouts were reported as fold change over baseline. Baseline for this study was the measurement obtained from total human T-cells stimulated with anti-CD3 antibody and with soluble anti-CD28 antibody, wherein the cells were not incubated with a Cbl-b inhibitor (Table 3).

[2] = 0.125 nM Cbl-b final concentration (Low), read-out: Cbl-b activity IC50 (Low)
[3] = read-out: IC50 values in the Cbl-b inhibition assay of Biological Example 1
[4] = 0.5 nM Cbl-b final concentration (High), read-out: Cbl-b activity IC50 (High)

Cbl-b, sequence (Q13191 36-427): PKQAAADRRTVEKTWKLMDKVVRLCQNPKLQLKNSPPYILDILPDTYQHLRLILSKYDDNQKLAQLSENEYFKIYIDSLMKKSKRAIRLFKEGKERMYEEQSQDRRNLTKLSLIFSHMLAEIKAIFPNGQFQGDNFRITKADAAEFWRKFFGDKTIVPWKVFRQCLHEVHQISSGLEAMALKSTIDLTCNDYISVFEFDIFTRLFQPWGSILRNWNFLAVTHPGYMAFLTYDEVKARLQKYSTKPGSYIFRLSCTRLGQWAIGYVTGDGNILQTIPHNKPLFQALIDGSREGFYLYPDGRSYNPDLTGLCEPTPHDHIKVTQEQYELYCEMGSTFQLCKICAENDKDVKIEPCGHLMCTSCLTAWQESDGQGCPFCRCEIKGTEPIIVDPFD

Row | Structure (SMILES) | IC50 (Cbl-b; [2]) [µM] | IC50 (Cbl-b; [3]) [µM] | CD25 staining CD3/CD28 0.3 μM [1] | IL-2 secretion CD3/CD28 0.3 μM [1] | CD25 staining CD3/CD28 1 μM [1] | IL-2 secretion CD3/CD28 1 μM [1] | CD25 staining CD3 1 μM [1] | IL-2 secretion CD3 1 μM [1] | CD25 staining CD3 3 μM [1] | IL-2 secretion CD3 3 μM [1] | IC50 (Cbl-b; [4]) [µM]
1 | C[C@@H]1CN(Cc2cc3c(c(C4CC4)n2)CN(c2cccc([C@@H](c4nncn4C)C4CCC4)c2)C3=O)CCC1(F)F [Compound 5, 2-(3-((S)-cyclobutyl(4-methyl-4H-1,2,4-triazol-3-yl)methyl)phenyl)-4-cyclopropyl-6-(((R)-4,4-difluoro-3-methylpiperidin-1-yl)methyl)-2,3-dihydro-1H-pyrrolo[3,4-c]pyridin-1-one] | 0.02 to 0.1 | 0.02 to 0.1 | B (B indicates 1.24-1.39 fold) | C (C indicates <20 fold) | B (B indicates 1.24-1.39 fold) | C (C indicates <20 fold) | C (C indicates <1.5 fold) | C (C indicates <0.70 fold) | C (C indicates <1.5 fold) | C (C indicates <0.70 fold) | –
2 | Cn1cnnc1C1(c2cccc(N3Cc4c(cccc4C(F)(F)F)C3=O)c2)CCCC1 [Compound 11, 2-(3-(1-(4-methyl-4H-1,2,4-triazol-3-yl)cyclopentyl)phenyl)-4-(trifluoromethyl)isoindolin-1-one] | – | – | – | C (C indicates <20 fold) | – | C (C indicates <20 fold) | C (C indicates <1.5 fold) | – | C (C indicates <1.5 fold) | – | > 0.1
3 | Cn1cnnc1C(C)(c1cccc(N2Cc3c(cccc3C(F)(F)F)C2=O)c1)C1CCC1 (stereo not shown) [Compound 18, 2-(3-(1-cyclobutyl-1-(4-methyl-4H-1,2,4-triazol-3-yl)ethyl)phenyl)-4-(trifluoromethyl)isoindolin-1-one] | > 0.1 | > 0.1 | B (B indicates 1.24-1.39 fold) | C (C indicates <20 fold) | B (B indicates 1.24-1.39 fold) | C (C indicates <20 fold) | B (B indicates 1.5-2.5 fold) | C (C indicates <0.70 fold) | A (A indicates >2.5 fold) | C (C indicates <0.70 fold) | –
4 | C[C@@H]1CN(Cc2cc3c(c(C(F)(F)F)c2)CN(c2cccc(C4(c5nncn5C)CC(F)(F)C4)c2)C3=O)CCC1(F)F [Compound 52, 2-{3-[3,3-difluoro-1-(4-methyl-1,2,4-triazol-3-yl)cyclobutyl]phenyl}-6-{[(3R)-4,4-difluoro-3-methylpiperidin-1-yl]methyl}-4-(trifluoromethyl)-3H-isoindol-1-one] | < 0.005 | – | – | A (A indicates >35 fold) | – | B (B indicates 20-35 fold) | A (A indicates >2.5 fold) | A (A indicates >1.1 fold) | A (A indicates >2.5 fold) | A (A indicates >1.1 fold) | –
5 | CC(c1cc2c(c(C(F)(F)F)c1)CN(c1cccc([C@@H](c3nncn3C)C3CCC3)c1)C2=O)N1CCC(F)(F)[C@H](C)C1 (stereo partly drawn) [Compound 14, 2-(3-((S)-cyclobutyl(4-methyl-4H-1,2,4-triazol-3-yl)methyl)phenyl)-6-(1-((R)-4,4-difluoro-3-methylpiperidin-1-yl)ethyl)-4-(trifluoromethyl)isoindolin-1-one] | 0.02 to 0.1 | 0.02 to 0.1 | B (B indicates 1.24-1.39 fold) | C (C indicates <20 fold) | – | C (C indicates <20 fold) | C (C indicates <1.5 fold) | C (C indicates <0.70 fold) | C (C indicates <1.5 fold) | C (C indicates <0.70 fold) | –
6 | Cc1cc(C(=O)Nc2cccc([C@@H](c3nncn3C)C3CCC3)c2)nc(C2CC2)n1 [Compound 12, (S)—N-(3-(cyclobutyl(4-methyl-4H-1,2,4-triazol-3-yl)methyl)phenyl)-2-cyclopropyl-6-methylpyrimidine-4-carboxamide] | – | – | – | C (C indicates <20 fold) | – | C (C indicates <20 fold) | C (C indicates <1.5 fold) | – | C (C indicates <1.5 fold) | – | > 0.1
7 | C[C@@H]1CN(Cc2cc3c(c(C(F)(F)F)c2)CN(c2cccc([C@]4(c5nncn5C)C[C@@H](C)C4)c2)C3=O)CCC1(F)F [Compound 19, 6-(((R)-4,4-difluoro-3-methylpiperidin-1-yl)methyl)-2-(3-((1s,3S)-3-methyl-1-(4-methyl-4H-1,2,4-triazol-3-yl)cyclobutyl)phenyl)-4-(trifluoromethyl)isoindolin-1-one] | 0.02 to 0.1 | – | – | C (C indicates <20 fold) | – | C (C indicates <20 fold) | C (C indicates <1.5 fold) | C (C indicates <0.70 fold) | C (C indicates <1.5 fold) | C (C indicates <0.70 fold) | –
8 | C[C@@H]1CN(Cc2cc3c(c(C(F)(F)F)c2)CN(c2cccc([C@@H](c4nncn4C)C4CCC4)c2)C3=O)CCC1(F)F [Compound 2, 2-(3-((S)-cyclobutyl(4-methyl-4H-1,2,4-triazol-3-yl)methyl)phenyl)-6-(((R)-4,4-difluoro-3-methylpiperidin-1-yl)methyl)-4-(trifluoromethyl)isoindolin-1-one] | > 0.1 | > 0.1 | – | A (A indicates >35 fold) | – | A (A indicates >35 fold) | A (A indicates >2.5 fold) | A (A indicates >1.1 fold) | A (A indicates >2.5 fold) | B (B indicates 0.70-1.1 fold) | –
9 | C[C@@H]1CN(Cc2cc3c(c(C(F)(F)F)c2)CN(c2cccc(C4(c5nncn5C)CC(F)(F)C4)c2)C3=O)CCO1 [Compound 53, 2-{3-[3,3-difluoro-1-(4-methyl-1,2,4-triazol-3-yl)cyclobutyl]phenyl}-6-{[(2R)-2-methylmorpholin-4-yl]methyl}-4-(trifluoromethyl)-3H-isoindol-1-one] | < 0.005 | – | – | A (A indicates >35 fold) | – | A (A indicates >35 fold) | A (A indicates >2.5 fold) | A (A indicates >1.1 fold) | A (A indicates >2.5 fold) | A (A indicates >1.1 fold) | –
10 | Cc1cc(C(=O)Nc2cccc([C@]3(c4nncn4C)C[C@@H](C)C3)c2)nc(C2CC2)n1 [Compound 21, 2-cyclopropyl-6-methyl-N-{3-[(1r,3s)-3-methyl-1-(4-methyl-1,2,4-triazol-3-yl)cyclobutyl]phenyl}pyrimidine-4-carboxamide] | 0.02 to 0.1 | – | B (B indicates 1.24-1.39 fold) | C (C indicates <20 fold) | B (B indicates 1.24-1.39 fold) | C (C indicates <20 fold) | B (B indicates 1.5-2.5 fold) | B (B indicates 0.70-1.1 fold) | B (B indicates 1.5-2.5 fold) | B (B indicates 0.70-1.1 fold) | –
11 | C[C@@H]1CN(Cc2cc3c(c(C4CC4)n2)CN(c2cccc([C@]4(c5nncn5C)C[C@@H](C)C4)c2)C3=O)CCC1(F)F [Compound 26, 4-cyclopropyl-6-(((R)-4,4-difluoro-3-methylpiperidin-1-yl)methyl)-2-(3-((1s,3S)-3-methyl-1-(4-methyl-4H-1,2,4-triazol-3-yl)cyclobutyl)phenyl)-2,3-dihydro-1H-pyrrolo[3,4-c]pyridin-1-one] | 0.005 to 0.02 | – | B (B indicates 1.24-1.39 fold) | C (C indicates <20 fold) | – | B (B indicates 20-35 fold) | A (A indicates >2.5 fold) | A (A indicates >1.1 fold) | A (A indicates >2.5 fold) | A (A indicates >1.1 fold) | –
